Measured values taken from US10851067B2, “Kv7 channel activators compositions and methods of use” (Knopp Biosciences LLC, priority 2018, dated 2020).

Experiments:
Kv7.2/7.3 [1] = target: T1, Kv7.2/7.3 (Homo sapiens, UniProt O43525+O43526); assay: Kv7.2/7.3 Thallium Flux Assay; assay type: cell-based; set-up: host or cells: HEK cells, tetracycline-inducible expression; details: read-out: Kv7.2/7.3 Activity: EC50 of Kv7.2/Kv7.3 activation
Description: The Thallium Flux Assay is used as a surrogate indicator of potassium channel activity.
The experimental protocol was adapted from the FluxOR™ II Green Potassium Ion Channel Assay User Guide (Pub. No. MAN0016084, Invitrogen). Conditions were optimized for the Kv7.2/7.3 cell line.
The hKV7.2/7.3 cell line was obtained from Chantest (Cleveland, Ohio 44128) cat. #CT6147.
Kv7.2/7.3 cells were maintained in a media containing DMEM/F12; 50/50 (GIBCO cat. #11330), 10% Fetal Bovine Serum (FBS) (GIBCO cat. #26140), 100 units/mL Penicillin-Streptomycin (GIBCO cat. #15140), 0.005 mg/ml Blasticidin (SIGMA 15205), 0.5 mg/mL Geneticin (GIBCO cat. #10131), and 0.1 mg/mL Zeocin (GIBCO cat. #R25001). One day prior to experimentation, cells were plated in 96 well clear bottom plates (Corning cat. #353219) in a media without Blasticidin, Geneticin, or Zeocin. Channel expression was induced by adding tetracycline (Bioline cat. #BIO87030) at a final concentration of 10 ng/mL.
The test compound is diluted in a mixture of 0.1% DMSO/extracellular solution with an eight-point concentration range from 0.014 μM to 30 μM. Serial dilutions were made on a Biomek NXP (BECKMAN COULTER).
Measurement and Data Analysis:
A plate reader (Enspire, Perkin Elmer) is used to characterize the ion-channel modulating properties of novel compounds using an excitation wavelength of 475 nm and an emission wavelength of 530 nm. After a 15 sec baseline measurement, the stimulus buffer containing thallium and potassium is injected. A final endpoint measure is taken after 90 sec. Responses are normalized to positive control (retigabine, 30 µM max). Mean normalized responses at each concentration tested are fit to the standard Hill equation to generate an EC50 and maximal response.

Kv7.2/7.3 [2] = target: T1, Kv7.2/7.3; assay: Kv7.2/7.3 Activation Assay, QPatch single concentration screen; assay type: cell-based; set-up: host or cells: HEK cells, tetracycline-inducible expression; key: 1.2-2.9 (+); 3-3.9 (++); >4 (+++) fold increase over baseline; O represents open channel at holding potential; details: Kv7.2/Kv7.3 co-expressing HEK cells, compound concentration 3 μM, steady-state current at end of 2 s pulse to −30 mV
Summary of the method: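 Tetracycline-induced HEK cells expressing human Kv7.2/7.3, recorded 24 h post-induction by automated planar patch clamp. From −80 mV, 2 s steps to −30 mV then 100 ms to −120 mV; compound tested at 3 μM (0.1% DMSO). Steady-state current at end of −30 mV step gives fold increase over baseline.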

Structure (SMILES) | EC50 (Kv7.2/7.3 [1]) | Kv7.2/7.3 Activity: increase over baseline in current (Kv7.2/7.3 [2])
CC1(n2c(NC(=O)CC3(C(F)(F)F)CC3)nc3c(F)cc(C#N)cc32)CCC1 [Example 561, N-(6-cyano-4-fluoro-1-(1-methylcyclobutyl)-1H-benzo[d]imidazol-2-yl)-2-(1-(trifluoromethyl)cyclopropyl)acetamide] | < 1000 nM | –
CC(C)(CC(=O)Nc1nc2cc(F)ccc2n1C1(C)CCC1)C(F)F [Example 524, 4,4-difluoro-N-(5-fluoro-1-(1-methylcyclobutyl)-1H-benzo[d]imidazol-2-yl)-3,3-dimethylbutanamide] | < 1000 nM | –
C=Cc1c(F)ccc2nc(NC(=O)CC(C)(C)C)n(C3CCC3)c12 [Example 552, N-(1-cyclobutyl-6-fluoro-7-vinyl-1H-benzo[d]imidazol-2-yl)-3,3-dimethylbutanamide] | < 1000 nM | –
CC(C)(C)n1c(NC(=O)CC2CC(F)(F)C2(F)F)nc2cc(F)cc(F)c21 (single isomer, unassigned) [Example 532, N-(1-(tert-butyl)-5,7-difluoro-1H-benzo[d]imidazol-2-yl)-2-(2,2,3,3-tetrafluorocyclobutyl)acetamide] | < 1000 nM | –
CC(C(=O)Nc1nc2ccc(C(C)(C)O)cc2n1C1(C)CCC1)C1(C(F)(F)F)CC1 (single isomer, unassigned) [Example 489, N-(6-(2-hydroxypropan-2-yl)-1-(1-methylcyclobutyl)-1H-benzo[d]imidazol-2-yl)-2-(1-(trifluoromethyl)cyclopropyl) propanamide] | < 1000 nM | –
CC(C)(CC(=O)Nc1nc2ccc(C#N)cc2n1C1CCC1)c1ccccn1 [Example 518, N-(6-cyano-1-cyclobutyl-1H-benzo[d]imidazol-2-yl)-3-methyl-3-(pyridin-2-yl)butanamide] | 1000 to 3000 nM | –
CC1(n2c(NC(=O)CC3CC(F)(F)C3(F)F)nc3cc(F)c(F)c(F)c32)CCC1 (single isomer, unassigned) [Example 559, 2-(2,2,3,3-tetrafluorocyclobutyl)-N-(5,6,7-trifluoro-1-(1-methylcyclobutyl)-1H-benzo[d]imidazol-2-yl)acetamide] | < 1000 nM | –
CC1(n2c(NC(=O)CC3CC(F)(F)C3(F)F)nc3cc(F)c(F)cc32)CCC1 (single isomer, unassigned) [Example 499, N-(5,6-difluoro-1-(1-methylcyclobutyl)-1H-benzo[d]imidazol-2-yl)-2-(2,2,3,3-tetrafluorocyclobutyl)acetamide] | < 1000 nM | –
CC(C)(C)CC(=O)Nc1nc2c(F)cc(C#N)cc2n1C1(C)CCC1 [Example 495, N-(6-cyano-4-fluoro-1-(1-methylcyclobutyl)-1H-benzo[d]imidazol-2-yl)-3,3-dimethylbutanamide] | < 1000 nM | –
CC(C)(C)n1c(NC(=O)CC2CC(F)(F)C2(F)F)nc2c(F)cc(C#N)cc21 (single isomer, unassigned) [Example 416, N-(1-(tert-butyl)-6-cyano-4-fluoro-1H-benzo[d]imidazol-2-yl)-2-(2,2,3,3-tetrafluorocyclobutyl)acetamide] | – | ++ (3-3.9 (++))
CC(O)(CC(=O)Nc1nc2c(F)cc(C#N)cc2n1C(C)(C)C)c1ccccc1F (single isomer, unassigned) [Example 348, N-(1-(tert-butyl)-6-cyano-4-fluoro-1H-benzo[d]imidazol-2-yl)-3-(2-fluorophenyl)-3-hydroxybutanamide] | – | O
CC(C)(C)CC(=O)Nc1nc2ccc(C(C)(C)O)cc2n1C12CC(C1)C2 [Example 425, N-(1-(bicyclo[1.1.1]pentan-1-yl)-6-(2-hydroxypropan-2-yl)-1H-benzo[d]imidazol-2-yl)-3,3-dimethylbutanamide] | – | ++ (3-3.9 (++))
COc1cccc2nc(NC(=O)CC(C)(C)C)n(C3CCC3)c12 [Example 476, N-(1-cyclobutyl-7-methoxy-1H-benzo[d]imidazol-2-yl)-3,3-dimethylbutanamide] | – | + (1.2-2.9 (+))
CC(C)(C)CC(=O)Nc1nc2ccc(C3(O)CCC3)c(F)c2n1C1CCC1 [Example 451, N-(1-cyclobutyl-7-fluoro-6-(1-hydroxycyclobutyl)-1H-benzo[d]imidazol-2-yl)-3,3-dimethylbutanamide] | – | O
CC(C)(CC(=O)Nc1nc2cc(F)cc(F)c2n1C1CCC1)C(F)(F)F [Example 453, N-(1-cyclobutyl-5,7-difluoro-1H-benzo[d]imidazol-2-yl)-4,4,4-trifluoro-3,3-dimethylbutanamide] | – | ++ (3-3.9 (++))
CC(O)(CC(=O)Nc1nc2ccc(C#N)cc2n1CC(F)(F)F)c1ccccc1 (single isomer, unassigned) [Example 396, N-(6-cyano-1-(2,2,2-trifluoroethyl)-1H-benzo[d]imidazol-2-yl)-3-hydroxy-3-phenylbutanamide] | – | + (1.2-2.9 (+))
CC(C)(C)CC(=O)Nc1nc2ccc(OC(F)F)cc2n1C1CCC1 [Example 389, N-(1-cyclobutyl-6-(difluoromethoxy)-1H-benzo[d]imidazol-2-yl)-3,3-dimethylbutanamide] | – | ++ (3-3.9 (++))
CC(C)(O)c1c(F)cc2nc(NC(=O)CC(C)(C)C(F)(F)F)n(C3CCC3)c2c1F [Example 470, N-(1-cyclobutyl-5,7-difluoro-6-(2-hydroxypropan-2-yl)-1H-benzo[d]imidazol-2-yl)-4,4,4-trifluoro-3,3-dimethylbutanamide] | – | + (1.2-2.9 (+))
CC(C)(CC(=O)Nc1nc2c(F)cc(C#N)cc2n1C(C)(C)C)C1CC1 [Example 482, N-(1-(tert-butyl)-6-cyano-4-fluoro-1H-benzo[d]imidazol-2-yl)-3-cyclopropyl-3-methylbutanamide] | – | +++ (>4 (+++) fold increase over baseline)
CC(C)(C)CC(=O)Nc1nc2c(F)cc(C(C)(C)O)c(F)c2n1C1CCC1 [Example 438, N-(1-cyclobutyl-4,7-difluoro-6-(2-hydroxypropan-2-yl)-1H-benzo[d]imidazol-2-yl)-3,3-dimethylbutanamide] | – | O
CC(C)(O)CC(=O)Nc1nc2cccc(OC(F)(F)F)c2n1C1CCC1 [Example 380, N-(1-cyclobutyl-7-(trifluoromethoxy)-1H-benzo[d]imidazol-2-yl)-3-hydroxy-3-methylbutanamide] | – | + (1.2-2.9 (+))
CC(C)(CC(=O)Nc1nc2ccc(OC(F)F)cc2n1C(C)(C)C)C1CC1 [Example 427, N-(1-(tert-butyl)-6-(difluoromethoxy)-1H-benzo[d]imidazol-2-yl)-3-cyclopropyl-3-methylbutanamide] | – | ++ (3-3.9 (++))
CC(C)(C)CC(=O)Nc1nc2c(F)cc(C(C)(O)C3CC3)cc2n1C1CCC1 (centres unmarked) [Example 445, N-(1-cyclobutyl-6-(1-cyclopropyl-1-hydroxyethyl)-4-fluoro-1H-benzo[d]imidazol-2-yl)-3,3-dimethylbutanamide] | – | ++ (3-3.9 (++))
CC(C)(CC(=O)Nc1nc2cc(F)c(OC(F)F)cc2n1C(C)(C)C)C1CC1 [Example 368, N-(1-(tert-butyl)-6-(difluoromethoxy)-5-fluoro-1H-benzo[d]imidazol-2-yl)-3-cyclopropyl-3-methylbutanamide] | – | + (1.2-2.9 (+))
CC(C)(C)CC(=O)Nc1nc2ccc(C(C)(C)O)cc2n1CC(F)(F)F [Example 440, N-(6-(2-hydroxypropan-2-yl)-1-(2,2,2-trifluoroethyl)-1H-benzo[d]imidazol-2-yl)-3,3-dimethylbutanamide] | – | + (1.2-2.9 (+))
CC(O)(CC(=O)Nc1nc2ccc(OC(F)F)cc2n1C1(C)CCC1)c1ccccc1 (single isomer, unassigned) [Example 463, N-(6-(difluoromethoxy)-1-(1 - methylcyclobutyl)-1H-benzo[d]imidazol-2-yl)-3-hydroxy-3-phenylbutanamide] | – | + (1.2-2.9 (+))
